According to patent publication US5786333A, “Platelet aggregation inhibitors” (COR Therapeutics, Inc., priority 1995, dated 1998):
Where two headings read alike, the source gives them in different places. Where a SMILES comes first, the peptide text is derived from it. Bridges are numbered along the chain shown (N, C = ends).

Legend:
human platelets = human platelets (Homo sapiens, UniProt P05106+P08514); assay: ADP-induced human platelet aggregation in platelet rich plasma; assay type: cell-based
Procedure: In these assays, washed platelets are combined with fibrinogen, Ca^+2 and the material to be tested.
Platelet rich plasma (PRP) was obtained from a healthy human volunteer. Aggregation was induced by the addition of 4 uM ADP to 0.5 ml PRP in an aggregometer (Chrono-log Corp.).
Fractions were concentrated to one-half their original volume using a Speed-Vac concentrator (Savant) followed by lyophilization. Samples were then reconstituted in 1 ml distilled water and aliquots (10-50 ul) assayed for their ability to inhibit human platelet aggregation in platelet-rich plasma induced by 20 uM ADP using a whole blood aggregometer (Chrono-Log Corp., Havertown, Pa.).

GP IIb-IIIa = molecular target: T1, GP IIb-IIIa (Homo sapiens, UniProt P05106+P08514); assay: Fibrinogen/GP IIb-IIIa plate binding assay; conditions: for differential inhibition of fibrinogen/GP IIb-IIIa binding as compared to vitronectin/vitronectin receptor binding: plate assays, FIG. 30; for inhibition of binding of fibrinogen to GP IIb-IIIa (in words): plate assay
T1 construct: Purified platelet GP IIb-IIIa receptor was prepared as described by Fitzgerald, L. A., et al; from tissue; host or cells: platelets
Procedure: In the assay, GP IIb-IIIa, prepared in purified form, for example as described by Fitzgerald, L. A., et al., Anal Biochem (1985) 151:169-177, incorporated herein by reference, is coated onto a solid support such as beads, test tubes, or microtiter plates. The coated support is then contacted with fibrinogen and with the test material and incubated for a sufficient time to permit maximal binding of fibrinogen to the immobilized GP IIb-IIIa. Fibrinogen is typically provided at a concentration of about 5-50 nM and the test material can, if desired, be added at a series of dilutions. Typical incubations are 2-4 hr at 35° C., the time and temperature being interdependent.
After incubation, the solution containing the fibrinogen and test material is removed and the level of binding of fibrinogen measured by quantitating bound fibrinogen to GP IIb-IIIa. Any suitable means of detection may be used, but it is convenient to employ labeled fibrinogen, for example using radioactive, fluorescent or biotinylated labels. Such methods are well known and need not be elaborated here.
In this case, percent inhibition may be calculated using the amount of Fg bound in the control as representing the basis, so that [formula] Other measures of inhibition effectiveness, such as IC50, may also be used.
Purified platelet GP IIb-IIIa receptor was prepared as described by Fitzgerald, L. A., et al., Anal Biochem (1985) 151:169-177. Vitronectin receptor was prepared as described by Smith, J. W., J Biol Chem (1988) 263:18726-18731. After purification, the receptors were stored in 0.1% Triton X-100 at 0.1-1.0 mg/ml.
The receptors were coated to the wells of 96-well flat-bottom ELISA plates (Linbro EIA-Plus microtiter plate, Flow Laboratories) after diluting 1:200 with a solution of […], 150 mM NaCl, 1 mM CaCl2, pH 7.4, to reduce the Triton X-100 concentration to below its critical micellar concentration and adding an aliquot of 100 ul to each well. The wells were all allowed to incubate overnight at 4° C., and then aspirated to dryness. Additional sites were blocked by the addition of bovine serum albumin (BSA) at 35 mg/ml in the above buffer for 2 hr at 30° C. to prevent nonspecific binding. The wells were then washed once with binding buffer ([…] Tris-HCl, 100 mM NaCl, 2 mM CaCl2, 1 mg/ml BSA).
The corresponding ligands (fibrinogen, von Willebrand Factor, or vitronectin) were labeled with ^125 I or conjugated to biotin using commercially available re-agents and standard protocols. The labeled ligands were added to the receptor-coated wells at final concentration of 10 nM (100 ul/well) and incubated for 3 h at 30° C. in the presence or absence of the test samples. After incubation, the wells are aspirated to dryness and bound ligand is quantitated.
For ^125 I-labeled ligands, the protein is solubilized with 250 ul SDS. For biotinylated ligands, the bound protein is detected by the addition of antibiotin antibody conjugated to alkaline phosphatase followed by addition of substrate (p-nitrophenyl phosphate), and determination of the optical density of each well at 405 nm.
Sixty-eight crude, lyophilized snake venoms obtained from either Sigma Chemical Company (St. Louis, Mo.) or Miami Serpentarium Labs (Salt Lake City, Utah) were dissolved at 1 mg/ml in buffer (50 mM Tris, 100 mM NaCl, 0.02% azide, 2 mM CaCi2). One ml aliquots of the solutions were subjected to ultrafiltration through Centrocon-10 (YM membrane) microconcentrators (Amicon, Danvers, Mass.). The filtrates were used as test samples in the receptor/ligand assay of paragraph A using the GP IIb-IIIa/fibrinogen system, and detecting binding using biotinylated fibrinogen.

vitronectin receptor = molecular target: T2, vitronectin receptor (Homo sapiens, UniProt P05106+P06756); assay: Vitronectin/vitronectin receptor plate binding assay
T2 construct: Vitronectin receptor was prepared as described by Smith, J. W., J Biol Chem (1988) 263:18726-18731; from tissue; the cited method uses human placenta (own knowledge)
T2 sequence (P06756 31-889 limits assumed): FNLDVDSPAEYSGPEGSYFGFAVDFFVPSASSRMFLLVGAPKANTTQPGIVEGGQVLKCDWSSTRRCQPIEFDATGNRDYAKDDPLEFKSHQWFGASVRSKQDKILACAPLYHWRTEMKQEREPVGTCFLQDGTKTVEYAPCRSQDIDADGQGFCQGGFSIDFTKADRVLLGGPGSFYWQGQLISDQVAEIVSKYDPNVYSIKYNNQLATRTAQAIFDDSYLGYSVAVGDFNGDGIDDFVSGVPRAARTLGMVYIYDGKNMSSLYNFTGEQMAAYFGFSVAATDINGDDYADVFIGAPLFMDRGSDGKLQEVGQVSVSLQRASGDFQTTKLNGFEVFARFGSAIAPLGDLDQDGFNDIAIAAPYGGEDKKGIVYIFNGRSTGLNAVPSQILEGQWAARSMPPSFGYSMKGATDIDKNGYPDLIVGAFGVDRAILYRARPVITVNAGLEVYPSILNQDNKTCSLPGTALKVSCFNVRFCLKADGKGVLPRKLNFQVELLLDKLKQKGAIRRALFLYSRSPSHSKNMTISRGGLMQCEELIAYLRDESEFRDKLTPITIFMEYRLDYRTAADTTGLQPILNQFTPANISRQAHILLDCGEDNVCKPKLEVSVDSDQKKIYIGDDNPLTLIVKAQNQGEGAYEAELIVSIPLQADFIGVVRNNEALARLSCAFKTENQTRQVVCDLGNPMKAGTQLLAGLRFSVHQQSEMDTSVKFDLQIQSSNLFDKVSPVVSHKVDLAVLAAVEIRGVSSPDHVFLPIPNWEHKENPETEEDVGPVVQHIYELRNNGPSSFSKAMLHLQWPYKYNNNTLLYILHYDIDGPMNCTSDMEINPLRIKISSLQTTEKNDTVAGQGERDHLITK
T2 sequence (P06756 891-1048 partner limits assumed): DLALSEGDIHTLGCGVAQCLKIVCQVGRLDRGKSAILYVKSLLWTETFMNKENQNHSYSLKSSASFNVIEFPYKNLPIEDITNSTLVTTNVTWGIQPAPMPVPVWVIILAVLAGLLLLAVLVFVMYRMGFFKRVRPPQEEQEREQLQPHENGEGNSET
T2 sequence (P05106 27-788): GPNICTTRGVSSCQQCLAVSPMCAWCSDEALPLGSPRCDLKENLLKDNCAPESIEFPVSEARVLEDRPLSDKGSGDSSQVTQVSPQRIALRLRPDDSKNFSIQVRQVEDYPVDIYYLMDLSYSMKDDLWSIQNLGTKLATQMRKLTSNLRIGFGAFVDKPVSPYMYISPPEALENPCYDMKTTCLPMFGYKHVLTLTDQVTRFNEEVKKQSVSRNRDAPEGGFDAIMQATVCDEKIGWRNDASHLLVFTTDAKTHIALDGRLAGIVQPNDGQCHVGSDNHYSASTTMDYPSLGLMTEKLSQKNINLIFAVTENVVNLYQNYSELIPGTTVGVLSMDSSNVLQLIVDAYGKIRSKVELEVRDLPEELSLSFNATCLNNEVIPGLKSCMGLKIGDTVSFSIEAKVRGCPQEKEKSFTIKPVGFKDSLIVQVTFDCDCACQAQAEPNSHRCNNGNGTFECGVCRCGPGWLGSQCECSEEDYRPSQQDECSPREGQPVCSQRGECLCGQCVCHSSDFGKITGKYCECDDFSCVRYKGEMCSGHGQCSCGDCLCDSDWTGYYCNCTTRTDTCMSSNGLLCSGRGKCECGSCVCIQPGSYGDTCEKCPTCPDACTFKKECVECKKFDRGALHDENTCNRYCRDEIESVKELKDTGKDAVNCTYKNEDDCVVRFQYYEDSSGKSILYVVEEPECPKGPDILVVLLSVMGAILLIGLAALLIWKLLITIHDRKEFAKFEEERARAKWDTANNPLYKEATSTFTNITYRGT
From the text: The assay systems of the invention further include characterization of the PAI specificity by binding inhibition assays identical to that above but substituting other adhesive proteins for Fg and other receptors for GP IIb-IIIa. In particular, inhibition of the binding of vitronectin to the vitronectin receptor; fibronectin to the fibronectin receptor; fibronectin to GP IIb-IIIa and fibrinogen and/or vWF to GP IIb-IIIa may be assessed. The adhesive protein and receptors for these assays are available in the art.
Purified platelet GP IIb-IIIa receptor was prepared as described by Fitzgerald, L. A., et al., Anal Biochem (1985) 151:169-177. Vitronectin receptor was prepared as described by Smith, J. W., J Biol Chem (1988) 263:18726-18731. […]
The corresponding ligands (fibrinogen, von Willebrand Factor, or vitronectin) were labeled with ^125 I or conjugated to biotin using commercially available re-agents and standard protocols. […] After incubation, the wells are aspirated to dryness and bound ligand is quantitated.
For ^125 I-labeled ligands, the protein is solubilized with 250 ul SDS. For biotinylated ligands, the bound protein is detected by the addition of antibiotin antibody conjugated to alkaline phosphatase followed by addition of substrate (p-nitrophenyl phosphate), and determination of the optical density of each well at 405 nm. […]

open chest dog = assay: Folts model of thrombosis in dog coronary artery (cyclic flow reductions); assay type: in vivo
Procedure: A. Initiation of cyclic flow reductions (CFRs) in open chest dog. An occluder placed on the left anterior descending (LAD) coronary artery of a 20 kg dog, as previously described was performed.

platelet receptors = platelet receptors (Homo sapiens, UniProt P05106+P08514); conditions: read-out: IC50 (affinity of interaction with platelet receptors); background art; cited from earlier work
M21 melanoma cells = assay: M21 melanoma cell attachment to vitronectin; assay type: cell-based; conditions: for inhibition of M21 melanoma cell attachment to vitronectin (in words): 35S-methionine labelled cells, vitronectin-coated plates
Procedure: M21 melanoma cells, which express high levels of the vitronectin receptor, were metabolically labelled with ^35 S-methionine, and then added to 24--well tissue culture plates coated with vitronectin. An incubation period of 1 hr at 37° C. was allowed for cell attachment, and this was followed by a wash to remove non-adherent cells. After washing, the adherent cells were solubilized, and the supernatants placed in a liquid scintillation counter. The fraction of cells remaining adherent was calculated by dividing the cpm in the solubilized supernatants by the cpm in the total number of cells added to each well. The effects of purifed snake venom peptides and synthetic cyclic peptides on cell adhesion was determined by including them with the M21 cells during the incubation period.
M21 melanoma cells were labelled with ^35 S-methionine, and then added to vitronectin-coated plates in the presence of the indicated concentrations of purified snake venom peptides. Cell attachment was measured by solubilizing the cells remaining after an incubation and wash, as described in Section C, on page 40.

[1] = ADP-induced human platelet aggregation, table of Example 17, read-out: Appr. IC50

## C[C@H](NC(=O)[C@@H]1CSSC[C@H](NC(=O)CN)C(=O)N[C@@H](CCCCN)C(=O)NCC(=O)N[C@@H](CC(=O)O)C(=O)N[C@@H](Cc2c[nH]c3ccccc23)C(=O)N1)C(N)=O [#7] (H-GCKGDWCA-NH2; disulfide 2-7)
Human platelets
  platelet aggregation inhibition (in words): excellent platelet aggregation inhibition activities
Human platelets; text of Example 17, read-out: IC50 for ability to inhibit ADP-induced human platelet aggregation
  IC50: 100 µM
GP IIb-IIIa
  differential inhibition of fibrinogen/GP IIb-IIIa binding as compared to vitronectin/vitronectin receptor binding: quite specific

## EEPCATGPCCRRCKFKRAGKVCRVAKGDWNNDYCTGKSCDCPRNPWNG (EEPCATGPCCRRCKFKRAGKVCRVAKGDWNNDYCTGKSCDCPRNPWNG) [Analog #2]
Vitronectin receptor
  inhibition of binding of vitronectin to vitronectin receptor (in words): inability to inhibit
GP IIb-IIIa
  inhibition of binding of fibrinogen to GP IIb-IIIa (in words): ability

## CC(=O)N[C@H]1CSSC[C@@H](C(N)=O)NC(=O)[C@H](CC(=O)O)NC(=O)CNC(=O)[C@H](CCCCN)NC1=O [Analog 8] (Ac-CKGDC-NH2; disulfide 1-5)
GP IIb-IIIa
  differential inhibition of fibrinogen/GP IIb-IIIa binding as compared to vitronectin/vitronectin receptor binding: differentially capable

## C[C@H](NC(=O)[C@@H]1CSSC[C@H](NC(=O)CN)C(=O)NCC(=O)N[C@@H](CCCCN)C(=O)NCC(=O)N[C@@H](CC(=O)O)C(=O)N[C@@H](Cc2c[nH]c3ccccc23)C(=O)N1)C(N)=O [#6] (H-GCGKGDWCA-NH2; disulfide 2-8)
Human platelets; [1]
  IC50: > 200 µM

## NCCCC[C@@H]1NC(=O)[C@@H](N)CSSC[C@@H](C(N)=O)NC(=O)[C@@H]2CCCN2C(=O)[C@H](Cc2c[nH]c3ccccc23)NC(=O)[C@H](CCC(=O)O)NC(=O)CNC1=O [#35] (H-CKGEWPC-NH2; disulfide 1-7)
Human platelets; [1]
  IC50: > 300 µM

## C[C@H](NC(=O)[C@@H]1CSSC[C@H](NC(=O)CN)C(=O)NCC(=O)N[C@@H](CCCCN)C(=O)NCC(=O)N[C@@H](CC(=O)O)C(=O)N[C@@H](Cc2c[nH]c3ccccc23)C(=O)N1)C(N)=O [Analog 6] (H-GCGKGDWCA-NH2; disulfide 2-8)
GP IIb-IIIa
  differential inhibition of fibrinogen/GP IIb-IIIa binding as compared to vitronectin/vitronectin receptor binding: differentially capable

## C[C@H](NC(=O)[C@@H]1CSSC[C@H](NC(=O)CN)C(=O)NCC(=O)N[C@@H](CCCCN)C(=O)NCC(=O)N[C@@H](CC(=O)O)C(=O)N[C@@H](Cc2c[nH]c3ccccc23)C(=O)N2CCC[C@H]2C(=O)N1)C(N)=O [#3]
Open chest dog; 10 mg infused into a peripheral vein, 20 kg open chest dog, FIG. 36
  effect on cyclic flow reductions (CFRs) in LAD coronary artery: partial ablation of the CFRs
Open chest dog; second infusion of 40 mg into a peripheral vein, open chest dog, FIG. 37
  effect on cyclic flow reductions (CFRs) in LAD coronary artery: complete ablation of the CFRs

## HHLGGAQKAGDV
Platelet receptors
  IC50: 10 to 100 µM

## C[C@H](NC(=O)[C@@H]1CSSC[C@H](NC(=O)CN)C(=O)N[C@@H](CCCCN)C(=O)NCC(=O)N[C@@H](CC(=O)O)C(=O)N[C@@H](Cc2c[nH]c3ccccc23)C(=O)N2CCC[C@H]2C(=O)N1)C(N)=O [#4] (H-GCKGDWPCA-NH2; disulfide 2-8)
GP IIb-IIIa
  differential inhibition of fibrinogen/GP IIb-IIIa binding as compared to vitronectin/vitronectin receptor binding: highest differential

## C[C@H](NC(=O)[C@@H]1CSSC[C@H](NC(=O)CN)C(=O)NCC(=O)N[C@@H](CCCCN)C(=O)NCC(=O)N[C@@H](CC(=O)O)C(=O)N[C@@H](Cc2c[nH]c3ccccc23)C(=O)N2CCC[C@H]2C(=O)N1)C(N)=O [Analog #3, G-C-G-K-G-D-W-P-C-A-NH2]
M21 melanoma cells
  inhibition of M21 melanoma cell attachment to vitronectin (in words): lack of ability
M21 melanoma cells; FIG. 32
  concentration up to which ineffective on M21 cell attachment to vitronectin: > 60 µM

## C[C@H](NC(=O)[C@@H]1CSSC[C@H](NC(=O)CN)C(=O)NCC(=O)N[C@@H](CCCNC(=N)N)C(=O)NCC(=O)N[C@@H](CC(=O)O)C(=O)N[C@@H](Cc2c[nH]c3ccccc23)C(=O)N2CCC[C@H]2C(=O)N1)C(N)=O [reference compound] (H-GCGRGDWPCA-NH2; disulfide 2-9)
M21 melanoma cells
  inhibition of M21 melanoma cell attachment to vitronectin (in words): potent inhibitors of cell attachment
M21 melanoma cells; listed as cyclic RGD compound
  inhibition of M21 melanoma cell attachment to vitronectin (in words): ability

## N=C(N)NCCC[C@H](N)C(=O)NCC(=O)N[C@@H](CC(=O)O)C(=O)N[C@@H](Cc1c[nH]c2ccccc12)C(N)=O [RGDW-NH2, reference compound] (H-RGDW-NH2)
GP IIb-IIIa
  inhibition of binding of fibrinogen to GP IIb-IIIa (in words): very similar in activity to cyclic GCGRGDWPCA-NH2

## ECADGLCCDQCRFLKKGTVCRVAKGDWNDDTCTGQSC- D-C-P-R-N-G-L-Y-G (ECADGLCCDQCRFLKKGTVCRVAKGDWNDDTCTGQSCDCPRNGLYG) [Analog #1]
M21 melanoma cells
  inhibition of M21 melanoma cell attachment to vitronectin (in words): neither barbourin nor Peptide 1 (truncated barbourin) had a significant effect
Human platelets
  platelet aggregation inhibition (in words): potent inhibitors of platelet aggregation

## NCCCC[C@@H]1NC(=O)CNC(=O)[C@@H](N)CSSC[C@@H](C(N)=O)NC(=O)[C@@H]2CCCN2C(=O)[C@H](Cc2c[nH]c3ccccc23)NC(=O)[C@H](CC(=O)O)NC(=O)CNC1=O [#5] (H-CGKGDWPC-NH2; disulfide 1-8)
Human platelets
  platelet aggregation inhibition (in words): excellent platelet aggregation inhibition activities
GP IIb-IIIa
  differential inhibition of fibrinogen/GP IIb-IIIa binding as compared to vitronectin/vitronectin receptor binding: quite specific
